One test relates to CALM2. Put plainly: Gene array of calmodulin expression with progestogen treatment: CALM2. In kind it is cell-based, human. As to conditions: primary myometrial cells treated with a 1:10 M/G ratio; for fold increase in CALM2 expression: compared to DMSO treated controls (FIG. 11). The protocol: (§1) The effect of progesterone or HPC treatment on calmodulin gene expression (CALM1, CALM2, CALM3) was further explored. Primary myometrial cells were treated with a 1:10 M/G ratio and a gene array used to assess calmodulin expression. […] The fold change in total CALM expression (trend line for all three isoforms) was approximately half with HPC treatment (4.4-fold) compared to progesterone (8.9-fold) or control treatments (8.3-fold).

The subject of another test is CALM1. As to the kind of experiment: Gene array of calmodulin expression with progestogen treatment: CALM1. In kind it is cell-based, human. As to conditions: primary myometrial cells treated with a 1:10 M/G ratio, compared to DMSO treated controls (FIG. 11). As to the method: as §1
In a further test the test system is CALM3. Put plainly: Gene array of calmodulin expression with progestogen treatment: CALM3. As to conditions: primary myometrial cells treated with a 1:10 M/G ratio, compared to DMSO treated controls (FIG. 11). In kind it is cell-based, human. The protocol:
as §1

The test system of another test is total CALM expression. As to the kind of experiment: Gene array of calmodulin expression with progestogen treatment: total CALM (all three isoforms). In kind it is cell-based, human. As to conditions: primary myometrial cells treated with a 1:10 M/G ratio. The protocol: as §1
For test [1] the following is noted: women with a prior history of spontaneous preterm birth; cited from earlier work.

Consider two compounds from patent US11293931B2, “Quantitative profiling of progesterone metabolites for the prediction of spontaneous preterm delivery” (Indiana University Research and Technology Corporation, priority 2016, dated 2022).

As to `CCCCCC(=O)O[C@]1(C(C)=O)CC[C@H]2[C@@H]3CCC4=CC(=O)CC[C@]4(C)[C@H]3CC[C@@]21C` [HPC, 17α-hydroxyprogesterone caproate], in the test on CALM2, the “reduction in CALM2 expression compared to progesterone treated cells” value is ~30% and the “fold increase in CALM2 expression” value is on record as 9 fold. Also, in the test with CALM1, the “change in CALM1 expression” value is on record as “modest decreases”. The “change in CALM3 expression” value in the test with CALM3 was “modest decreases”. Also, in the test on total CALM expression, the “fold change in total CALM expression (trend line for all three isoforms)” value came out at 4.4 fold. Further, the “reduction in the risk of recurrent sPTB” value in test [1] is listed as 30-40%.
Take `CC(=O)[C@H]1CC[C@H]2[C@@H]3CCC4=CC(=O)CC[C@]4(C)[C@H]3CC[C@]12C` [progesterone]: the “fold increase in CALM2 expression” value in the test on CALM2 came out at 13 fold. In addition, the “change in CALM1 expression” value in the test with CALM1 is recorded as “modest decreases”. In addition, in the test with CALM3, the “change in CALM3 expression” value is on record as “modest decreases”. In the test on total CALM expression, the “fold change in total CALM expression (trend line for all three isoforms)” value was found to be 8.9 fold.
